Test results: article PMC11945486, “TAS1R2/TAS1R3 Single-Nucleotide Polymorphisms Affect Sweet Taste Receptor Activation by Sweeteners: The SWEET Project” (Nutrients, 2025)
Blank lines part the entries; values can stand above or below the molecule they belong to. No end group written: not given here.

Molecular target: T1, human TAS1R2-WT/TAS1R3-S551N (Homo sapiens, UniProt Q7RTX0+Q8TE23, S551N)
T1 construct: expressed in transfected cells; host or cells: HEK293T stably expressing Gα16gust44
T1 sequence (Q8TE23 20-839): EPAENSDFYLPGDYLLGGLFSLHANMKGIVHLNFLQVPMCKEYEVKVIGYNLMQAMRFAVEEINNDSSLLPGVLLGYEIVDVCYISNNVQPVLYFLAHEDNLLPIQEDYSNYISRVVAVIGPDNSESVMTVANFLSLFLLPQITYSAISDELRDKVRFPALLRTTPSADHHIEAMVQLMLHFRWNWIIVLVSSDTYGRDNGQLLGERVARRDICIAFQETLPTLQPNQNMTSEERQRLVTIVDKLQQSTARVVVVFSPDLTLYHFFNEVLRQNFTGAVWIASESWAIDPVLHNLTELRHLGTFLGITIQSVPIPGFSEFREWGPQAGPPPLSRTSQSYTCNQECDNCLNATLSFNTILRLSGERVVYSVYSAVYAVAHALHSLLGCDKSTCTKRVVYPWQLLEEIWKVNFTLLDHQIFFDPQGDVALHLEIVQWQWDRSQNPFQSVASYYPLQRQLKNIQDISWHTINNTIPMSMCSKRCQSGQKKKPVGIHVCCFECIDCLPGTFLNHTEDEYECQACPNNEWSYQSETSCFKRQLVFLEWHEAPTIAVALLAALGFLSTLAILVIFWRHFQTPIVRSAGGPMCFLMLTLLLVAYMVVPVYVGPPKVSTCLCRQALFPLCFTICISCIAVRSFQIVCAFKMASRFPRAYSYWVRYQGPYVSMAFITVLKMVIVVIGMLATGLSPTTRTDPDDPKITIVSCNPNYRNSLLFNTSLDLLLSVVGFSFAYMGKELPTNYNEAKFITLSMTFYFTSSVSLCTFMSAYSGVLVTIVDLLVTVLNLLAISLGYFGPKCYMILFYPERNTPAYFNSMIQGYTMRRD
T1 sequence (Q7RTX0 21-852 S551N): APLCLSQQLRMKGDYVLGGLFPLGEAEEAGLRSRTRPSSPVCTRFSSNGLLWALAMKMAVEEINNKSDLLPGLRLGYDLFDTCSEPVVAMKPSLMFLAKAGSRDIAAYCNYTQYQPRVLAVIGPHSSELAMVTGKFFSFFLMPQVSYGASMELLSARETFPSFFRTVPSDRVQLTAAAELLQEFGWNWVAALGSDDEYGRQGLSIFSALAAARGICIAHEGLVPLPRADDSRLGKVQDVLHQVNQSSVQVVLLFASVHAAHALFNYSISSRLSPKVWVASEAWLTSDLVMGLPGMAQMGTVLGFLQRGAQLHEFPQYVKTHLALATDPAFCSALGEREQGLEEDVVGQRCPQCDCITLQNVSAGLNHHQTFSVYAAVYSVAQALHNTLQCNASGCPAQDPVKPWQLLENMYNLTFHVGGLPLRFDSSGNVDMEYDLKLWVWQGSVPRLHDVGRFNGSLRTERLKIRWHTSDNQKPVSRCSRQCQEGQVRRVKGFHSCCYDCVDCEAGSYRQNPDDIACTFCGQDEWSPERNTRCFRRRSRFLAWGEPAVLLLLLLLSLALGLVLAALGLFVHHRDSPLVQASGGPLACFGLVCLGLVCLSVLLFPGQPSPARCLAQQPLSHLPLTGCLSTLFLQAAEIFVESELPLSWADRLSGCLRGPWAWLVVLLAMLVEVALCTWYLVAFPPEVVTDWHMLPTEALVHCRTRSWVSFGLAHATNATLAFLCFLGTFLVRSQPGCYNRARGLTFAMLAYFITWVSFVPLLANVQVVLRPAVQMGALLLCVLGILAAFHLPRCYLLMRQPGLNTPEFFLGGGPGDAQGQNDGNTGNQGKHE
Test: Calcium mobilisation assay, TAS1R2-WT with TAS1R3 variant S551N
Assay type: cell-based
Details: for Max ΔF/F0: maximal signal amplitude; for Max ΔF/F0 / EC50: "-": no activation
Excerpt: The coding sequences for TAS1R2 and TAS1R3 were commercially synthesised, and the human codon was optimised for expression in human cells. The coding sequences of human TAS1R2 and TAS1R3 were subcloned and inserted into the mammalian expression vectors pcDNA6/myc-HisA and pcDNA4/myc-HisA (Invitrogen; Thermo Fisher Scientific; Illkirch, France) between the EcoRI and NotI restriction sites, generating the plasmids pcDNA6-TAS1R2 and pcDNA4-TAS1R3, respectively. To increase protein expression in mammalian cells, an upstream start codon was used, which was a sequence called MAX, corresponding to the QBI SP163 element also described in pcDNA4-HisMax (Invitrogen; Thermo Fisher Scientific; Illkirch, France). To measure the expression level of the receptor by immunohistochemistry, we used the FLAG sequence ([…]) in the C-terminal position, which encodes the FLAG tag epitope. SNP variants of TAS1R2 and TAS1R3 were constructed based on […], respectively, using site-directed mutagenesis (Genewiz; Leipzig, Germany).
The HEK293T cells were kindly provided by Jay P. Slack (Givaudan Flavors Corporation; Cincinnati, OH, USA). HEK293T cells stably transfected with Gα16gust44 [43, 67] were seeded in poly-D-lysine-coated clear-bottom black 96-well plates (0.35 × 10^5 cells/well) in high-glucose DMEM supplemented with 2 mM GlutaMAX, 10% dialysed foetal bovine serum with penicillin/streptomycin and G418 (400 μg/mL) at 37 °C and 6.3% CO2 in a humidified atmosphere as previously reported. […] As a negative control, HEK293T cells were mock-transfected with the empty expression vector. After a further 24 h of incubation, the HEK293T cells were washed with C1 buffer (130 mM NaCl, 5 mM KCl, 10 mM HEPES pH 7.4 and 2 mM CaCl2). The 96-well plates containing the cells were then stimulated with sweet-tasting compounds. […] Different concentration ranges were tested depending on the sweet compound injected. The Ca^2+ changes were expressed as fractional changes in fluorescent light intensity: ΔF/F = (F − F0)/F0, where F was the fluorescent light intensity at each point, and F0 was the value of emitted fluorescent light prior to stimulus application. To calculate dose–response relationships, the changes in fluorescence upon stimulus application were averaged, mock-subtracted and baseline-corrected. The dose–response data obtained were adjusted using a 4-parameter logistic equation. The half-maximal effective concentrations (EC50 values) and maximal signal amplitudes were calculated using SigmaPlot software (version 15.0) (Systat Software; San Jose, CA, USA).
For in vitro calcium mobilisation assay performed on hTAS1R2-SNPs, hTAS1R3-SNPs and mTAS1R3-I60T, 6 to 7 concentrations were tested for each sweet compound, plus buffer alone. All concentration–receptor combinations were measured in duplicate, and each experiment was repeated at least 4 times (8 wells/concentration). Results were expressed for each concentration as ΔF/F mean ± SEM and represented as dose–response curves.

R1 = Variant EC50/WT EC50: 1.7
Max ΔF/F0: 0.25 ± 0.01
Molecule: thaumatin

EC50: 17.4 ± 2.2 µM
B1: thaumatin (protein)
chain: ATFEIVNRCSYTVWAAASKGDAALDAGGRQLNSGESWTINVEPGTKGGKIWARTDCYFDDSGSGICKTGDCGGLLRCKRFGRPPTTLAEFSLNQYGKDYIDISNIKGFNVPMDFSPTTRGCRGVRCAADIVGQCPAKLKAPGGGCNDACTVFQTSEYCCTTGKCGPTEYSRFFKRLCPDAFSYVLDKPTTVTCPGSSNYRVTFCPTA
modifications: Eight disulfides
notes: sweet-tasting plant protein, E957

The remaining lines, values behind:

Molecule: C[C@H](CC[C@@H](O[C@@H]1O[C@H](CO[C@@H]2O[C@H](CO)[C@@H](O)[C@H](O)[C@H]2O)[C@@H](O)[C@H](O)[C@H]1O[C@@H]1O[C@H](CO)[C@@H](O)[C@H](O)[C@H]1O)C(C)(C)O)[C@H]1CC[C@@]2(C)[C@@H]3CC=C4[C@@H](CC[C@H](O[C@@H]5O[C@H](CO[C@@H]6O[C@H](CO)[C@@H](O)[C@H](O)[C@H]6O)[C@@H](O)[C@H](O)[C@H]5O)C4(C)C)[C@]3(C)[C@H](O)C[C@]12C [Mogroside V, mogroside V]
R1 = Variant EC50/WT EC50: 3.6
Max ΔF/F0: 0.03

Molecule: C=C(C)[C@@H]1CC=C(/C=N/O)CC1 [Perillartine, perillartine]
R1 = Variant EC50/WT EC50: 3.6
EC50: 49.2 ± 13.6 µM
Max ΔF/F0: 0.52 ± 0.04

Molecule: brazzein (QDKCKKVYENYPVSKCQLANQCNYDCKLDKHARSGECFYDEKRNLQCICDYCEY; ends and bridges not checked; cysteine pairing not given here; UniProt P56552 1-54, looked up) [sweet-tasting protein obtained by recombinant production using the yeast Pichia pastoris]
R1 = Variant EC50/WT EC50: 21.1
Max ΔF/F0: 0.21 ± 0.21
